Reference: patent US20260365646A1, “AKT1 MODULATORS” (Alterome Therapeutics, Inc., priority 2022, published 2026)
Where two headings read alike, the source gives them in different places.

Target: T1, full length AKT E17K (Homo sapiens, UniProt P31749, E17K)
T1 construct: host or cells: HEK-293 (ATCC CRL-1573)
Assay: NanoBRET Target Engagement (TE) Intracellular Kinase Assay
Assay type: cell-based
Source text: The NanoBRET™ Target Engagement (TE) Intracellular Kinase Assays are based on the NanoBRET™ System (Promega Corporation), an energy transfer technique designed to measure molecular proximity in living cells. The NanoBRET™ TE Assays measure the apparent affinity of test compounds by competitive displacement of the NanoBRET™ tracer compound, which is a cell permeable molecule engineered to be reversibly bound to a NanoLuc® luciferase-kinase fusion expressed in cells. For compound screening, when a test compound binds to the selected kinase, the BRET signal is attenuated. […] All cells were evaluated for viability prior to transfection and optimization of the transfection was done prior to experimentation. […] Following transfection, cells were washed and resuspended in Opti-MEM. NanoBRET assays were performed in white, 384-well plates (Corning) at a density of 2×10^5 cells/well. All example compounds were prepared as concentrated stock solutions in DMSO (Sigma-Aldrich). Compounds are dissolved in DMSO to make 10 mM stock solution. […] A Labcyte ECHO 550 compound dispenser was used to facilitate compound transfer directly to cells. Cells were equilibrated for 2 hr with energy transfer probes and example compound prior to BRET measurements. […] For target engagement analysis, the energy transfer probes were added to the cells at concentrations optimized for the target in question (AKT E17K). Following compound incubation, NanoBRET NanoGlo Substrate (Promega Cat #Ni57D) and Extracellular Nanoluc Inhibitor (Promega Cat #N235C) was added according to the manufacturer's recommended protocol, and luminescence was measured on Envision Reader (Perkin Elmer) Multimode Luminometer equipped with 450 nm BPfilter (donor) and 600 nm LPfilter (acceptor), using 0.5 s integration time. Milli-BRET units (mBU) are calculated by multiplying the raw BRET values by 1000. Apparent tracer affinity values (EC50) were determined using the sigmoidal dose-response (variable slope). Competitive displacement data were then plotted and data were fit to determine the EC50 value for each example compound.

[1] = read-out: NanoBRET AKT1E17K EC50, HEK-293 cells transfected with NanoLuc-AKT E17K, competitive displacement of NanoBRET tracer, 2 hr equilibration, 10-point 3-fold dilution

T1 sequence (P31749 whole entry E17K): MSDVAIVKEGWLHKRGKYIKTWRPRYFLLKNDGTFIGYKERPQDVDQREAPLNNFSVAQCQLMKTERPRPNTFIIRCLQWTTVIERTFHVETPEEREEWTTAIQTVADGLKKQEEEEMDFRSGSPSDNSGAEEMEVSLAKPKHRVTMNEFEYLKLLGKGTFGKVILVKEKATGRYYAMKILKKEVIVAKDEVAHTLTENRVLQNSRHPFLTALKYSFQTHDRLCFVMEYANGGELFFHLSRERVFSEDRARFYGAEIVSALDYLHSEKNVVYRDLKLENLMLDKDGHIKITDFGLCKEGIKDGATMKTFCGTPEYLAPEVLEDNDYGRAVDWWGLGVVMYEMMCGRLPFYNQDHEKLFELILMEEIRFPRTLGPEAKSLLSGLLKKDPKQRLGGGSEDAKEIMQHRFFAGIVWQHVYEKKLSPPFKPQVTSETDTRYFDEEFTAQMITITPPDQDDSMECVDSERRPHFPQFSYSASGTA

SMILES: COc1c(N(C)[C@H]2CCN(Cc3ccc(-n4c(-c5cccnc5N)nc5ccc(-c6ccccc6)nc54)cc3)C2)c(=O)c1=O [Example 81, (S)-3-((1-(4-(2-(2-aminopyridin-3-yl)-5-phenyl-3H-imidazo[4,5-b]pyridin-3-yl)benzyl)pyrrolidin-3-yl)(methyl)amino)-4-methoxycyclobut-3-ene-1,2-dione]
- EC50 [1]: < 15 nM

SMILES: COc1c(N(C2CC2)C2CCN(Cc3ccc(-n4c(-c5cccnc5N)nc5ccc(-c6ccccc6)nc54)cc3)CC2)c(=O)c1=O [Example 94, 3-((1-(4-(2-(2-aminopyridin-3-yl)-5-phenyl-3H-imidazo[4,5-b]pyridin-3-yl)benzyl)piperidin-4-yl)(cyclopropyl)amino)-4-methoxycyclobut-3-ene-1,2-dione]
- EC50 [1]: < 15 nM

SMILES: CSc1c(N(C)C2CCN(Cc3ccc(-n4c(-c5cccnc5N)nc5ccc(-c6ccccc6)nc54)cc3)CC2)c(=O)c1=O [Example 47, 3-((1-(4-(2-(2-aminopyridin-3-yl)-5-phenyl-3H-imidazo[4,5-b]pyridin-3-yl)benzyl)piperidin-4-yl)(methyl)amino)-4-(methylthio)cyclobut-3-ene-1,2-dione]
- EC50 [1]: < 15 nM

SMILES: CN(C)c1c(NC2CCN(Cc3ccc(-n4c(-c5cccnc5N)nc5ccc(-c6ccccc6)nc54)cc3)CC2)c(=O)c1=O [Example 19, 3-((1-(4-(2-(2-Aminopyridin-3-yl)-5-phenyl-3H-imidazo[4,5-b]pyridin-3-yl)benzyl)piperidin-4-yl)amino)-4-(dimethylamino)cyclobut-3-ene-1,2-dione]
- EC50: > 600 nM

SMILES: Nc1ncccc1-c1nc2ccc(-c3ccccc3)nc2n1-c1ccc(CN2CCN3c4c(c(=O)c4=O)OCC[C@H]3C2)cc1 [Example 89, (S)-7-(4-(2-(2-aminopyridin-3-yl)-5-phenyl-3H-imidazo[4,5-b]pyridin-3-yl)benzyl)-5,5a,6,7,8,9-hexahydro-4H-cyclobuta[b]pyrazino[1,2-d][1,4]oxazepine-1,2-dione]
- EC50: > 600 nM

SMILES: COc1c(N[C@@H]2CCCN(Cc3ccc(-n4c(-c5cccnc5N)nc5ccc(-c6ccccc6)nc54)cc3)C2)c(=O)c1=O [Example 34, (R)-3-((1-(4-(2-(2-aminopyridin-3-yl)-5-phenyl-3H-imidazo[4,5-b]pyridin-3-yl)benzyl)piperidin-3-yl)amino)-4-methoxycyclobut-3-ene-1,2-dione]
- EC50 [1]: < 15 nM

SMILES: COc1c(NC2CCN(Cc3ccc(-n4c(-c5cccnc5N)nc5cccnc54)cc3)CC2)c(=O)c1=O [Example 3, 3-((1-(4-(2-(2-Aminopyridin-3-yl)-3H-imidazo[4,5-b]pyridin-3-yl)benzyl)piperidin-4-yl)amino)-4-methoxycyclobut-3-ene-1,2-dione]
- EC50: 15 to 60 nM

SMILES: COc1c(N2C[C@H]3C[C@@H]2CN3Cc2ccc(-n3c(-c4cccnc4N)nc4ccc(-c5ccccc5)nc43)cc2)c(=O)c1=O [Example 76, 3-((1R,4R)-5-(4-(2-(2-aminopyridin-3-yl)-5-phenyl-3H-imidazo[4,5-b]pyridin-3-yl)benzyl)-2,5-diazabicyclo[2.2.1]heptan-2-yl)-4-methoxycyclobut-3-ene-1,2-dione]
- EC50 [1]: < 15 nM

SMILES: COc1c(N2CCC3(CCN(Cc4ccc(-n5c(-c6cccnc6N)nc6ccc(-c7ccccc7)nc65)cc4)CC3)C2)c(=O)c1=O [Example 54, 3-(8-(4-(2-(2-Aminopyridin-3-yl)-5-phenyl-3H-imidazo[4,5-b]pyridin-3-yl)benzyl)-2,8-diazaspiro[4.5]decan-2-yl)-4-methoxycyclobut-3-ene-1,2-dione]
- EC50: 15 to 60 nM

SMILES: COc1c(N2CCCC3(CN(Cc4ccc(-n5c(-c6cccnc6N)nc6ccc(-c7ccccc7)nc65)cc4)C3)C2)c(=O)c1=O [Example 65, 3-(2-(4-(2-(2-aminopyridin-3-yl)-5-phenyl-3H-imidazo[4,5-b]pyridin-3-yl)benzyl)-2,6-diazaspiro[3.5]nonan-6-yl)-4-methoxycyclobut-3-ene-1,2-dione]
- EC50: 60 to 600 nM

SMILES: COc1c(N(C)C2CCN(Cc3ccc(-n4c(-c5cccnc5N)nc5cc(-c6ccccc6)cnc54)cc3)CC2)c(=O)c1=O [Example 32, 3-((1-(4-(2-(2-Aminopyridin-3-yl)-6-phenyl-3H-imidazo[4,5-b]pyridin-3-yl)benzyl)piperidin-4-yl)(methyl)amino)-4-methoxycyclobut-3-ene-1,2-dione]
- EC50: 60 to 600 nM

SMILES: COc1c(Nc2cccc(C(=O)NCc3ccc(-n4c(-c5cccnc5N)nc5ccc(-c6ccccc6)nc54)cc3)c2)c(=O)c1=O [Example 33, N-(4-(2-(2-aminopyridin-3-yl)-5-phenyl-3H-imidazo[4,5-b]pyridin-3-yl)benzyl)-3-((2-methoxy-3,4-dioxocyclobut-1-en-1-yl)amino)benzamide]
- EC50: 60 to 600 nM

SMILES: COc1c(N2C[C@H]3CN(Cc4ccc(-n5c(-c6cccnc6N)nc6ccc(-c7ccccc7)nc65)cc4)C[C@H]3C2)c(=O)c1=O [Example 86, 3-((3aR,6aS)-5-(4-(2-(2-aminopyridin-3-yl)-5-phenyl-3H-imidazo[4,5-b]pyridin-3-yl)benzyl)hexahydropyrrolo[3,4-c]pyrrol-2(1H)-yl)-4-methoxycyclobut-3-ene-1,2-dione]
- EC50: 15 to 60 nM

SMILES: COc1c(N2CCN(Cc3ccc(-n4c(-c5cccnc5N)nc5cc(-c6ccccc6)cnc54)cc3)CC2)c(=O)c1=O [Example 9, 3-(4-(4-(2-(2-Aminopyridin-3-yl)-6-phenyl-3H-imidazo[4,5-b]pyridin-3-yl)benzyl)piperazin-1-yl)-4-methoxycyclobut-3-ene-1,2-dione]
- EC50: 60 to 600 nM

SMILES: COc1c(N2CCN(Cc3ccc(-n4c(-c5cccnc5N)nc5ccc(-c6ccccc6)nc54)cc3)C[C@H]2C)c(=O)c1=O [Example 67, (R)-3-(4-(4-(2-(2-aminopyridin-3-yl)-5-phenyl-3H-imidazo[4,5-b]pyridin-3-yl)benzyl)-2-methylpiperazin-1-yl)-4-methoxycyclobut-3-ene-1,2-dione]
- EC50: 60 to 600 nM

SMILES: CCN(c1c(SC)c(=O)c1=O)C1CCN(Cc2ccc(-n3c(-c4cccnc4N)nc4ccc(-c5ccccc5)nc43)cc2)CC1 [Example 92, 3-((1-(4-(2-(2-aminopyridin-3-yl)-5-phenyl-3H-imidazo[4,5-b]pyridin-3-yl)benzyl)piperidin-4-yl)(ethyl)amino)-4-(methylthio)cyclobut-3-ene-1,2-dione]
- EC50 [1]: < 15 nM

SMILES: Nc1ncccc1-c1nc2ccc(-c3ccccc3)nc2n1-c1ccc(CN2CCC(Nc3c(OC4CCCC4)c(=S)c3=O)CC2)cc1 [Example 15, 2-((1-(4-(2-(2-Aminopyridin-3-yl)-5-phenyl-3H-imidazo[4,5-b]pyridin-3-yl)benzyl)piperidin-4-yl)amino)-3-(cyclopentyloxy)-4-thioxocyclobut-2-en-1-one]
- EC50: 60 to 600 nM

SMILES: Nc1ncccc1-c1nc2ccc(-c3ccccc3)nc2n1-c1ccc(CN2CCC(Nc3c(O)c(=O)c3=O)CC2)cc1 [Example 18, 3-((1-(4-(2-(2-Aminopyridin-3-yl)-5-phenyl-3H-imidazo[4,5-b]pyridin-3-yl)benzyl)piperidin-4-yl)amino)-4-hydroxycyclobut-3-ene-1,2-dione]
- EC50: > 600 nM

SMILES: COc1c(N2CCC(OCc3ccc(-n4c(-c5cccnc5N)nc5ccc(-c6ccccc6)nc54)cc3)CC2)c(=O)c1=O [Example 78, 3-(4-((4-(2-(2-aminopyridin-3-yl)-5-phenyl-3H-imidazo[4,5-b]pyridin-3-yl)benzyl)oxy)piperidin-1-yl)-4-methoxycyclobut-3-ene-1,2-dione]
- EC50 [1]: < 15 nM

SMILES: COc1c(NC2CCN(Cc3ccc(-n4c(-c5cccnc5N)nc5ccc(-c6cccc(NC(C)=O)c6)nc54)cc3)CC2)c(=O)c1=O [Example 8, N-(3-(2-(2-Aminopyridin-3-yl)-3-(4-((4-((2-methoxy-3,4-dioxocyclobut-1-en-1-yl)amino)piperidin-1-yl)methyl)phenyl)-3H-imidazo[4,5-b]pyridin-5-yl)phenyl)acetamide]
- EC50 [1]: < 15 nM

SMILES: CCSc1c(N(C)C2CCN(Cc3ccc(-n4c(-c5cccnc5N)nc5ccc(-c6ccccc6)nc54)cc3)CC2)c(=O)c1=O [Example 49, 3-((1-(4-(2-(2-Aminopyridin-3-yl)-5-phenyl-3H-imidazo[4,5-b]pyridin-3-yl)benzyl)piperidin-4-yl)(methyl)amino)-4-(ethylthio)cyclobut-3-ene-1,2-dione]
- EC50 [1]: < 15 nM

SMILES: Nc1ncccc1-c1nc2ccc(-c3ccccc3)nc2n1-c1ccc(CNc2c(O)c(=O)c2=O)cc1 [Example 5, 3-((4-(2-(2-Aminopyridin-3-yl)-5-phenyl-3H-imidazo[4,5-b]pyridin-3-yl)benzyl)amino)-4-hydroxycyclobut-3-ene-1,2-dione]
- EC50: > 600 nM

SMILES: Nc1ncccc1-c1nc2ccc(-c3ccccc3)nc2n1-c1ccc(CN2CCC(N3CCCOc4c3c(=O)c4=O)C2)cc1 (centres unmarked) [Example 82, 6-(1-(4-(2-(2-aminopyridin-3-yl)-5-phenyl-3H-imidazo[4,5-b]pyridin-3-yl)benzyl)pyrrolidin-3-yl)-2-oxa-6-azabicyclo[5.2.0]non-1(7)-ene-8,9-dione]
- EC50: 60 to 600 nM
